PubChem BioAssay AID248 (DTP/NCI, 2004)
“And” between values parts separate entries of the source, which are not always exact repeats. Equal entries are not always repeated. Inconclusive results and toxic doses are left out. Rule as the data show it: active = T/C of 150% or more; inactive = T/C below 125%.

Tested on: L1210 leukemia ip in BDF1 mice, survival T/C
Experiment: NCI In Vivo Anticancer Drug Screen. Data for tumor model L1210 Leukemia (intraperitoneal) in B6D2F1 (BDF1) mice
Details: endpoint: mean survival time, higher = longer survival
Procedure, shortened: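 Transplantable tumor model; survival measured in treated vs vehicle control mice. Value = treated/control.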

[1] = dose: 25.0 mg/kg/injection, schedule: Q04DX003 (ip), vehicle: Klucel (hydroxypropylcellulose) (HPC)
[2] = dose: 50.0 mg/kg/injection, schedule: Q04DX003 (ip), vehicle: Klucel (hydroxypropylcellulose) (HPC)
[3] = dose: 100.0 mg/kg/injection, schedule: Q04DX003 (ip), vehicle: saline
[4] = dose: 100.0 mg/kg/injection, schedule: Q01DX009 (ip), vehicle: saline
[5] = dose: 200.0 mg/kg/injection, schedule: Q01DX009 (ip), vehicle: saline
[6] = dose: 200.0 mg/kg/injection, schedule: Q04DX003 (ip), vehicle: saline
[7] = dose: 100.0 mg/kg/injection, schedule: Q01DX001 (ip), vehicle: saline
[8] = dose: 100.0 mg/kg/injection, schedule: Q04DX003 (ip), vehicle: Klucel (hydroxypropylcellulose) (HPC)
[9] = dose: 200.0 mg/kg/injection, schedule: Q04DX003 (ip), vehicle: Klucel (hydroxypropylcellulose) (HPC)
[10] = dose: 100.0 mg/kg/injection, schedule: Q04DX003 (ip), vehicle: saline with Tween-80
[11] = dose: 200.0 mg/kg/injection, schedule: Q04DX003 (ip), vehicle: saline with Tween-80
[12] = dose: 400.0 mg/kg/injection, schedule: Q04DX003 (ip), vehicle: saline with Tween-80

Measured: T/C

OC1CC2c3ccccc3C1c1cccc[n+]12 (centres undefined)
inactive: dose: 12.5 mg/kg/injection, schedule: Q01DX009 (ip), vehicle: Klucel (hydroxypropylcellulose) (HPC) 98 % of control | dose: 12.5 mg/kg/injection, schedule: Q04DX003 (ip), vehicle: Klucel (hydroxypropylcellulose) (HPC) 94 % of control and 97 % of control | dose: 12.5 mg/kg/injection, schedule: Q04DX003 (ip), vehicle: saline 100 % of control | dose: 25.0 mg/kg/injection, schedule: Q01DX009 (ip), vehicle: Klucel (hydroxypropylcellulose) (HPC) 96 % of control | [1] 103 % of control and 95 % of control | dose: 25.0 mg/kg/injection, schedule: Q04DX003 (ip), vehicle: saline 103 % of control | dose: 50.0 mg/kg/injection, schedule: Q01DX009 (ip), vehicle: Klucel (hydroxypropylcellulose) (HPC) 94 % of control | [2] 94 % of control and 95 % of control | dose: 50.0 mg/kg/injection, schedule: Q04DX003 (ip), vehicle: saline 97 % of control | [3] 102 % of control

O=C(O)c1ccc(NCc2cccc(NCCCc3ccccc3)c2)cc1
inactive: dose: 100.0 mg/kg/injection, schedule: Q01DX001 (ip), vehicle: saline with Tween-80 92 % of control | dose: 200.0 mg/kg/injection, schedule: Q01DX001 (ip), vehicle: saline with Tween-80 92 % of control | dose: 400.0 mg/kg/injection, schedule: Q01DX001 (ip), vehicle: saline with Tween-80 93 % of control

NC(=S)N/N=C/c1ccncc1
inactive: dose: 50.0 mg/kg/injection, schedule: Q01DX009 (ip), vehicle: saline 96 % of control | [4] 98 % of control | [3] 96 % of control | [5] 93 % of control | [6] 91 % of control

NNC(=O)Nc1cccnc1
inactive: dose: 75.0 mg/kg/injection, schedule: Q01DX009 (ip), vehicle: saline 106 % of control

NNCC(F)(F)F
inactive: [7] 101 % of control

O=S(=O)(CCCc1ccccc1)CCS(=O)(=O)CCCc1ccccc1
inactive: dose: 50.0 mg/kg/injection, schedule: Q01DX009 (ip), vehicle: acetone 98 % of control | dose: 100.0 mg/kg/injection, schedule: Q01DX009 (ip), vehicle: acetone 98 % of control | dose: 200.0 mg/kg/injection, schedule: Q01DX009 (ip), vehicle: acetone 98 % of control

O=C(O)c1cc(-c2ccc(N(CCCl)CCCl)cc2)nc2ccccc12
inactive: dose: 100.0 mg/kg/injection, schedule: Q01DX001 (ip), vehicle: other 104 % of control | dose: 200.0 mg/kg/injection, schedule: Q01DX001 (ip), vehicle: other 104 % of control | dose: 400.0 mg/kg/injection, schedule: Q01DX001 (ip), vehicle: other 96 % of control

CCCCCCCCCCCCCCCCCCS(=O)(=O)CCCl
inactive: [1] 107 % of control | [2] 100 % of control | [8] 96 % of control | [9] 93 % of control | dose: 400.0 mg/kg/injection, schedule: Q04DX003 (ip), vehicle: Klucel (hydroxypropylcellulose) (HPC) 91 % of control

CCCCCCCCCCCCSC(=O)CCC(=O)O
inactive: dose: 50.0 mg/kg/injection, schedule: Q01DX009 (ip), vehicle: other 102 % of control | dose: 100.0 mg/kg/injection, schedule: Q01DX009 (ip), vehicle: other 108 % of control | [8] 97 % of control | dose: 200.0 mg/kg/injection, schedule: Q01DX009 (ip), vehicle: other 97 % of control | [9] 103 % of control

Cc1cc(=O)c2cc(N)ccc2[nH]1
inactive: dose: 100.0 mg/kg/injection, schedule: Q01DX009 (ip), vehicle: water 98 % of control | dose: 100.0 mg/kg/injection, schedule: Q04DX003 (ip), vehicle: water 107 % of control | dose: 200.0 mg/kg/injection, schedule: Q01DX009 (ip), vehicle: water 98 % of control | dose: 200.0 mg/kg/injection, schedule: Q04DX003 (ip), vehicle: water 113 % of control | dose: 400.0 mg/kg/injection, schedule: Q01DX009 (ip), vehicle: water 94 % of control | dose: 400.0 mg/kg/injection, schedule: Q04DX003 (ip), vehicle: water 116 % of control

COc1ccc(C2=NC(=O)C(C(=O)c3ccccc3)O2)cc1 (centres undefined)
inactive: [7] 94 % of control | dose: 200.0 mg/kg/injection, schedule: Q01DX001 (ip), vehicle: saline 96 % of control | dose: 400.0 mg/kg/injection, schedule: Q01DX001 (ip), vehicle: saline 96 % of control

CC(=O)C(c1ccccc1)(c1ccccc1)c1ccccc1
inactive: [10] 96 % of control | [11] 93 % of control | [12] 91 % of control

NN1Cc2ccc3c4c(ccc(c24)C1)C=C3
inactive: dose: 15.0 mg/kg/injection, schedule: Q01DX001 (ip), vehicle: carboxymethylcellulose (CMC) 108 % of control | dose: 30.0 mg/kg/injection, schedule: Q01DX001 (ip), vehicle: carboxymethylcellulose (CMC) 97 % of control | dose: 60.0 mg/kg/injection, schedule: Q01DX001 (ip), vehicle: carboxymethylcellulose (CMC) 101 % of control

O=C(NNC(=O)c1ccc(Br)cc1)c1ccc(Cl)cc1
inactive: dose: 100.0 mg/kg/injection, schedule: Q01DX001 (ip), vehicle: Klucel (hydroxypropylcellulose) (HPC) 100 % of control | dose: 100.0 mg/kg/injection, schedule: Q01DX009 (ip), vehicle: Klucel (hydroxypropylcellulose) (HPC) 91 % of control | dose: 200.0 mg/kg/injection, schedule: Q01DX001 (ip), vehicle: Klucel (hydroxypropylcellulose) (HPC) 92 % of control | dose: 200.0 mg/kg/injection, schedule: Q01DX009 (ip), vehicle: Klucel (hydroxypropylcellulose) (HPC) 93 % of control | dose: 400.0 mg/kg/injection, schedule: Q01DX001 (ip), vehicle: Klucel (hydroxypropylcellulose) (HPC) 92 % of control

O=C(O)CSC(CC(=O)O)C(F)(F)C(F)(F)C(F)(F)F (centres undefined)
inactive: [4] 100 % of control | [3] 96 % of control | [5] 97 % of control | [6] 98 % of control | dose: 400.0 mg/kg/injection, schedule: Q01DX009 (ip), vehicle: saline 104 % of control | dose: 400.0 mg/kg/injection, schedule: Q04DX003 (ip), vehicle: saline 93 % of control

Cc1ccc(NCc2nc(N)nc(Nc3ccccc3)n2)cc1
inactive: [10] 97 % of control | [11] 92 % of control | [12] 93 % of control

C1SCC12CSC2
inactive: dose: 6.25 mg/kg/injection, schedule: Q01DX001 (ip), vehicle: saline with Tween-80 93 % of control | dose: 12.5 mg/kg/injection, schedule: Q01DX001 (ip), vehicle: saline with Tween-80 96 % of control | dose: 25.0 mg/kg/injection, schedule: Q01DX001 (ip), vehicle: saline with Tween-80 104 % of control

C[N+]1(C)CCNC(=O)CC1
inactive: dose: 75.0 mg/kg/injection, schedule: Q01DX001 (ip), vehicle: saline 105 % of control | dose: 150.0 mg/kg/injection, schedule: Q01DX001 (ip), vehicle: saline 94 % of control | dose: 300.0 mg/kg/injection, schedule: Q01DX001 (ip), vehicle: saline 105 % of control

C=CCCCCCCCCC(=O)N/N=C(/C)c1ccc(C)cc1
inactive: dose: 100.0 mg/kg/injection, schedule: Q04DX002 (ip), vehicle: Klucel (hydroxypropylcellulose) (HPC) 103 % of control | dose: 200.0 mg/kg/injection, schedule: Q04DX002 (ip), vehicle: Klucel (hydroxypropylcellulose) (HPC) 118 % of control | dose: 400.0 mg/kg/injection, schedule: Q04DX002 (ip), vehicle: Klucel (hydroxypropylcellulose) (HPC) 92 % of control
